Tests used:
Pseudomonas aeruginosa = experiment: Biofilm formation in flow cell with CVD polymer coating, inoculated medium flowed through; type: cell-based; conditions: IL encapsulated in CVD polymer film on flow cell; medium inoculated with P. aeruginosa
Excerpt: Chemical vapor deposition (CVD) was used to cross-link a polymer and bind it to a flow cell surface using in a custom built vacuum reactor (Sharon Vacuum) previously described (Martin, T. P. et al. Biomaterials 2007, 28, 909-915; and Ozaydin-Ince, G. et al. J. Vac. Sci. Technol., A 2009, 27, 1135-1143). During CVD depositions, tert-butyl peroxide (TBPO) and monomers N,N-dimethylacrylamide ([…], FIG. 2A) and di(ethylene glycol) divinyl ether (DEGDVE, FIG. 2B) were introduced into the CVD reactor through mass flow controllers (1479 MFC, MKS Instruments). The grafting agent was trichlorovinylsilane (FIG. 2C), which covalently grafted the polymer network onto the surface via silanization. DMMA, which was the repeating unit in the polymer chains, was introduced into the chamber at a rate of about 2.8 mL/min. The crosslinker DEGDVE, which linked different polymer chains, was introduced into the chamber at a rate of 0.3 mL/min. The initiator TBPO was introduced into the chamber at a rate of about 1.0 mL/min. The substrate temperature was about 30° C., and the chamber pressure was about 400 mTorr. The ionic liquid was N-hexylethylenediaminium bis([…])amide, [HHex][Tf2N] (FIG. 1).
A flow cell had the bottom side CVD coated by the polymer as described in Example 2. One cell had the polymer film impregnated by an IL ([HHex][Tf2N]). […]

[1] = Ionic liquid leaching from ionogel by ICP mass spectrometry; type: physicochemical; conditions: IL trapped in ionogel
[2] = Desorption of polymer and ionic liquid from coated glass slides in water; type: physicochemical; conditions: after a day in water

**Q.** For “N-hexylethylenediaminium bis(trifluoroethanesulfonyl)amide [[HHex][Tf2N]]”, which biofilm growth (Pseudomonas aeruginosa) is on record?
**A.** The biofilm growth was “no biofilm growth”.

**Q.** What about the “ionic liquid leaching over time” value [1] of the same substance?
**A.** The value was “lack of ionic liquid leaching over time”.

**Q.** What about the “desorption of polymer and ionic liquid” value [2] of the same substance?
**A.** Its value is “have not desorbed”.

From patent US11045833B2, “Task specific ionic liquid-impregnated polymeric surface coatings for antibacterial, antifouling, and metal scavenging activity” (Massachusetts Institute of Technology, priority 2017, dated 2021)
